Data on ten compounds can be found in patent US12180193B2, “Accelerating fibrosarcoma protein degrading compounds and associated methods of use” (Arvinas Operations, Inc., priority 2020, dated 2024).

One assay concerns the target T1, BRAF V600E (Homo sapiens, UniProt P15056, V600E).
T1 construct: expressed in transfected cells
In words: Cellular assay of target protein degradation, T-Rex 293 cells stably transfected with HA-BRAF_V600E (HA immunofluorescence, high content imaging). As to conditions: T-Rex 293 HA-BRAF V600E; for DC50: half maximal degradation, read-out: BRaf V600E DC50; for Dmax: maximum degradation observed. The class given is cell-based. The method in brief: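 Cells are plated with 1 ng/mL doxycycline and grown 24 h. Compound is then added (final 1 μM–0.1 nM, 0.1% DMSO) for another 24 h at 37 °C, followed by fixing, HA immunostaining and imaging to obtain DC50 and Dmax.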

In the next assay the target is T2, BRAF G466V (Homo sapiens, UniProt P15056, G466V).
T2 construct: expressed in transfected cells
T2 sequence (P15056 whole entry G466V): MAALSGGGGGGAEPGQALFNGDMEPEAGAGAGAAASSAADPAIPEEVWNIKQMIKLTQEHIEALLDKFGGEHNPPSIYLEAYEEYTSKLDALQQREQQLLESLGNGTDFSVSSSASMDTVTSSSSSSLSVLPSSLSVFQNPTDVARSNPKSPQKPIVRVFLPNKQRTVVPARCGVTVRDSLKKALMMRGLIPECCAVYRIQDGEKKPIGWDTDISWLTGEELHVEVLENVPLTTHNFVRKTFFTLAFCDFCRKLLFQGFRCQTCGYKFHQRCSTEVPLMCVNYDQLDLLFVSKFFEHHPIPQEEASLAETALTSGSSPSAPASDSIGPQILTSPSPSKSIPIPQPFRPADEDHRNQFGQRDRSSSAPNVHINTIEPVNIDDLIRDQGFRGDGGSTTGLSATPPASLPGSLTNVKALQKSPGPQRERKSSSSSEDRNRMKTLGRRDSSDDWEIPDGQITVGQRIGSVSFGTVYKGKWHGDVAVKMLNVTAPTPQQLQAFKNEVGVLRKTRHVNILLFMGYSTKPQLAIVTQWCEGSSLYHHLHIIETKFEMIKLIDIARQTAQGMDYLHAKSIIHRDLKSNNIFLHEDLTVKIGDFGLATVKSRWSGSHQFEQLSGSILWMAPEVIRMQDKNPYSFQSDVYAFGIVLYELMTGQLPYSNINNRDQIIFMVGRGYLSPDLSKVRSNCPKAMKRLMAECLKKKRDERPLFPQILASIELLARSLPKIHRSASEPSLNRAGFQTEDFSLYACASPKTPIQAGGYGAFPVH
In words: Cellular assay of target protein degradation, T-Rex 293 cells stably transfected with HA-BRAF G466V (HA immunofluorescence, high content imaging). The class given is cell-based. As to conditions: T-Rex 293 HA-BRAF G466V; for DC50: half maximal degradation, read-out: BRaf G466V DC50; for Dmax: maximum degradation observed. An outline of the steps:
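Read-out is HA immunofluorescence by high content imaging, with Hoechst and phalloidin co-staining, giving DC50 and Dmax as a percentage of control. Compound exposure lasts 24 hours at 37° C over 30 nM to 3 pM in 0.1% DMSO, with doxycycline-induced HA-BRAF G466V.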

T1 sequence (P15056 whole entry V600E): as the sequence (P15056 whole entry G466V) above, with V466G, V600E counted along it

As for `O=C1CC[C@@H](N2Cc3cc(N4CCC(CN5CCC6(CCN(c7ccc(-c8cnc9[nH]cc(C(=O)c%10c(F)ccc(NS(=O)(=O)N%11CC[C@@H](F)C%11)c%10F)c9c8)cc7F)CC6)C5)CC4)ccc3C2=O)C(=O)N1` [Compound 259, (3R)-N-{3-[5-(4-{2-[(1-{2-[(3R)-2,6-dioxopiperidin-3-yl]-1-oxo-2,3-dihydro-1H-isoindol-5-yl}piperidin-4-yl)methyl]-2,8-diazaspiro[4.5]decan-8-yl}-3-fluorophenyl)-1H-pyrrolo[2,3-b]pyridine-3-carbonyl]-2,4-difluorophenyl}-3-fluoropyrrolidine-1-sulfonamide], on BRAF V600E, the DC50 (commonly the midpoint of the concentration-degradation curve) was less than 5 nM and the Dmax – broadly, the greatest extent of degradation seen – was 35 to 70%. On BRAF G466V, the DC50 was less than 1 nM and the Dmax was 35 to 70%.

Consider `N#Cc1cc(-c2cnc3[nH]cc(C(=O)c4c(F)ccc(NS(=O)(=O)N5CC[C@@H](F)C5)c4F)c3c2)cc(C#N)c1N1CCC(CN2CCC(c3ccc4c(c3)CN([C@H]3CCC(=O)NC3=O)C4=O)CC2)CC1` [Compound 260, (3R)-N-{3-[5-(3,5-dicyano-4-{4-[(4-{2-[(3S)-2,6-dioxopiperidin-3-yl]-1-oxo-2,3-dihydro-1H-isoindol-5-yl}piperidin-1-yl)methyl]piperidin-1-yl}phenyl)-1H-pyrrolo [2,3-b]pyridine-3-carbonyl]-2,4-difluorophenyl}-3-fluoropyrrolidine-1-sulfonamide], for which the DC50 at BRAF V600E lay in the range of 5 to 50 nM; on BRAF G466V, 1 to 10 nM. Moreover, the Dmax at BRAF V600E and at BRAF G466V was 35 to 70% in each case.

As for `N#Cc1cc(-c2cnc3[nH]cc(C(=O)c4c(F)ccc(NS(=O)(=O)N5CC[C@@H](F)C5)c4F)c3c2)cc(C#N)c1N1CCC(CN2CCC(c3ccc4c(c3)CN(C3CCC(=O)NC3=O)C4=O)CC2)CC1` (stereo partly drawn) [Compound 261, (3R)-N-[3-(5-{3,5-dicyano-4-[4-({4-[2-(2,6-dioxopiperidin-3-yl)-1-oxo-2,3-dihydro-1H-isoindol-5-yl]piperidin-1-yl}methyl)piperidin-1-yl]phenyl}-1H-pyrrolo [2,3-b]pyridine-3-carbonyl)-2,4-difluorophenyl]-3-fluoropyrrolidine-1-sulfonamide], on BRAF V600E, the DC50 lay within 5 to 50 nM and the Dmax was 35 to 70%. Further, on BRAF G466V, the DC50 is 1 to 10 nM and the Dmax was greater than 70%.

Consider `C[C@H]1CC[C@H](C)N1S(=O)(=O)Nc1ccc(F)c(C(=O)c2c[nH]c3ncc(-c4ccc(N5CCC(CN6CCC(c7ccc8c(c7)CN([C@H]7CCC(=O)NC7=O)C8=O)CC6)CC5)cc4)cc23)c1F` [Compound 262, (2S,5S)-N-{3-[5-(4-{4-[(4-{2-[(3S)-2,6-dioxopiperidin-3-yl]-1-oxo-2,3-dihydro-1H-isoindol-5-yl}piperidin-1-yl)methyl]piperidin-1-yl}phenyl)-1H-pyrrolo [2,3-b]pyridine-3-carbonyl]-2,4-difluorophenyl}-2,5-dimethylpyrrolidine-1-sulfonamide], for which, on BRAF V600E, the DC50 lay in the range of 5 to 50 nM and the Dmax was less than 35%. For the same compound, at BRAF G466V, the DC50 is 1 to 10 nM and the Dmax is 35 to 70%.

Take `C[C@H]1CC[C@H](C)N1S(=O)(=O)Nc1ccc(F)c(C(=O)c2c[nH]c3ncc(-c4ccc(N5CCC(CN6CCC(c7ccc8c(c7)CN(C7CCC(=O)NC7=O)C8=O)CC6)CC5)cc4)cc23)c1F` (stereo partly drawn) [Compound 263, (2S,5S)-N-[3-(5-{4-[4-({4-[2-(2,6-dioxopiperidin-3-yl)-1-oxo-2,3-dihydro-1H-isoindol-5-yl]piperidin-1-yl}methyl)piperidin-1-yl]phenyl}-1H-pyrrolo[2,3-b]pyridine-3-carbonyl)-2,4-difluorophenyl]-2,5-dimethylpyrrolidine-1-sulfonamide]: at BRAF V600E, the DC50 fell in the range of 50 to 500 nM and the Dmax is less than 35%. Also, at BRAF G466V, the DC50 was in the range of 1 to 10 nM and the Dmax was 35 to 70%.

Regarding `C[C@H]1CCCN1S(=O)(=O)Nc1ccc(F)c(C(=O)c2c[nH]c3ncc(-c4ccc(N5CCC(CN6CCC(c7ccc8c(c7)CN(C7CCC(=O)NC7=O)C8=O)CC6)CC5)cc4)cc23)c1F` (stereo partly drawn) [Compound 264, (2S)-N-[3-(5-{4-[4-({4-[2-(2,6-dioxopiperidin-3-yl)-1-oxo-2,3-dihydro-1H-isoindol-5-yl]piperidin-1-yl}methyl)piperidin-1-yl]phenyl}-1H-pyrrolo[2,3-b]pyridine-3-carbonyl)-2,4-difluorophenyl]-2-methylpyrrolidine-1-sulfonamide], the 50% degradation concentration (DC50) on BRAF V600E fell in the range of 5 to 50 nM; at BRAF G466V, 1 to 10 nM. For the same compound, the Dmax at BRAF V600E and on BRAF G466V was 35 to 70% each time.

In the case of `CCc1ccc(NS(=O)(=O)N2CC[C@@H](F)C2)c(F)c1C(=O)c1c[nH]c2ncc(-c3ccc(N4CCC(CN5CCC(c6ccc7c(c6)CN([C@H]6CCC(=O)NC6=O)C7=O)CC5)CC4)cc3)cc12` [Compound 265, (3R)-N-{3-[5-(4-{4-[(4-{2-[(3S)-2,6-dioxopiperidin-3-yl]-1-oxo-2,3-dihydro-1H-isoindol-5-yl}piperidin-1-yl)methyl]piperidin-1-yl}phenyl)-1H-pyrrolo [2,3-b]pyridine-3-carbonyl]-4-ethyl-2-fluorophenyl}-3-fluoropyrrolidine-1-sulfonamide], the DC50 at BRAF V600E was greater than 500 nM; on BRAF G466V, greater than 30 nM.

For `CCc1ccc(NS(=O)(=O)N2CC[C@@H](F)C2)c(F)c1C(=O)c1c[nH]c2ncc(-c3ccc(N4CCC(CN5CCC(c6ccc7c(c6)CN(C6CCC(=O)NC6=O)C7=O)CC5)CC4)cc3)cc12` (stereo partly drawn) [Compound 266, (3R)-N-[3-(5-{4-[4-({4-[2-(2,6-dioxopiperidin-3-yl)-1-oxo-2,3-dihydro-1H-isoindol-5-yl]piperidin-1-yl}methyl)piperidin-1-yl]phenyl}-1H-pyrrolo[2,3-b]pyridine-3-carbonyl)-4-ethyl-2-fluorophenyl]-3-fluoropyrrolidine-1-sulfonamide], the DC50 on BRAF V600E was greater than 500 nM; at BRAF G466V, greater than 30 nM.

As for `O=C1CC[C@H](N2Cc3cc(C4CCN(CC5CCN(c6ccc(-c7cnc8[nH]cc(C(=O)c9c(Cl)ccc(NS(=O)(=O)N%10CC[C@@H](F)C%10)c9Cl)c8c7)cc6)CC5)CC4)ccc3C2=O)C(=O)N1` [Compound 267, (3R)-N-{2,4-dichloro-3-[5-(4-{4-[(4-{2-[(3S)-2,6-dioxopiperidin-3-yl]-1-oxo-2,3-dihydro-1H-isoindol-5-yl}piperidin-1-yl)methyl]piperidin-1-yl}phenyl)-1H-pyrrolo [2,3-b]pyridine-3-carbonyl]phenyl}-3-fluoropyrrolidine-1-sulfonamide], at BRAF V600E, the DC50 lay within 5 to 50 nM and the Dmax was in the range of 35 to 70%. Also, at BRAF G466V, the DC50 lay in the range of 1 to 10 nM and the Dmax lay in the range of 35 to 70%.

For `O=C1CCC(N2Cc3cc(C4CCN(CC5CCN(c6ccc(-c7cnc8[nH]cc(C(=O)c9c(Cl)ccc(NS(=O)(=O)N%10CC[C@@H](F)C%10)c9Cl)c8c7)cc6)CC5)CC4)ccc3C2=O)C(=O)N1` (stereo partly drawn) [Compound 268, (3R)-N-[2,4-dichloro-3-(5-{4-[4-({4-[2-(2,6-dioxopiperidin-3-yl)-1-oxo-2,3-dihydro-1H-isoindol-5-yl]piperidin-1-yl}methyl)piperidin-1-yl]phenyl}-1H-pyrrolo [2,3-b]pyridine-3-carbonyl)phenyl]-3-fluoropyrrolidine-1-sulfonamide], the DC50 fell in the range of 50 to 500 nM at BRAF V600E and 1 to 10 nM at BRAF G466V. Further, the Dmax was 35 to 70% on BRAF V600E and less than 35% on BRAF G466V.
